Paper PMC3433414, “Oral Administration of the Pimelic Diphenylamide HDAC Inhibitor HDACi 4b Is Unsuitable for Chronic Inhibition of HDAC Activity in the CNS In Vivo” (PLoS ONE, 2012)

Legend:
PCP = test: Cerep binding, antagonist radioligand; details: 10 μM
Description: (§1) In addition to the HDAC profiling performed, we also queried 4b for any apparent potential off-target effects, which could complicate any finding of efficacy or adverse events in vivo due to ‘polypharmacy’. This was accomplished by screening against a ‘diversity panel’ of 72 binding and 29 enzyme assays, comprised of roughly equal numbers of selective central and peripheral therapeutically relevant targets (Cerep Diversity Profile). This panel included representative targets from diverse enzyme families, G protein coupled receptors, steroid nuclear receptors, voltage- and ligand-gated ion channels. While not totally inclusive, it is a useful tool for discovery compounds to assess their viability as proof of concept molecules to specifically query a particular target. 4b was initially screened at 10 µM in duplicate. The full set of results is provided as Table S1. […] This clean in vitro profile was considered acceptable to proceed to ADME and pharmacokinetic studies.

Na+ channel (site 2) = test: Cerep binding, antagonist radioligand; details: 10 μM
Description: as §1

NMDA = test: Cerep binding, antagonist radioligand; details: 10 μM
Description: as §1

M (non‐selective) = test: Cerep binding, antagonist radioligand; details: 10 μM
Description: as §1

[1] = system: histone acetylation in mouse brain; test: Histone acetylation in brain tissue (central pharmacodynamics); details: 150 mg/kg po bid, five consecutive days; 1 h post last dose
Experimental: Cortical tissue from the mice was assessed using specific antibodies for increases in acetylation of specific lysine residues on Histones H3 (H3K4, H3K9, H3K14) and H4 (H4K5) as well as global acetylation of H3 (Ac-H3) and H4 (Ac-H4). The acetylation level was normalized to total H3 and H4 expression level. The samples from the rest of the brain were analyzed for terminal 4b levels at the time of sacrifice. […] Mouse brains were harvested, dissected, immediately frozen in liquid nitrogen and stored at −80°C. Mouse brain tissue was homogenized (polytron homogenizer, 20 s) in 2 volumes of histone extraction buffer (1×PBS, 5% Triton X-100 (v/v), 3 mM DTT, 1 mM orthovanadate, 5 mM NaF, 1 mM PMSF, 5 mM Na Butyrate, Roche complete protease inhibitor tablet) and centrifuged at 900 g for 8 min at 4°C. The resulting pellet was washed twice in 1 ml of histone extraction buffer before being re-suspended in 2–3 volumes of 0.2 M HCl. Samples were then vortexed briefly and left to shake vigorously for 3 h at 4°C using a VXR Vibrax 1.5 ml polypropylene tube shaker (IKA). After shaking, samples were centrifuged at 900 g for 8 min at 4°C and the resulting supernatant was retained and neutralized with 0.2 volumes of 1 M NaOH.

[2] = Permeability in MDCK cells; assay type: in vitro ADME; details: dog, pH 7.4
Experimental: The MDR1-MDCKII and wild type MDCKII cell lines (obtained from SOLVO Biotechnology) were cultured in accordance with the guidelines provided by SOLVO Biotechnology. Both wild-type MDCK and MDR1-MDCK cells were seeded at a cell density of 2.3×10^5 cells/well into 24-well Transwell plates and cultured for three days to form monolayers. Test compound was loaded into the donor compartments of the Transwell plate (24-well) bearing MDR1-MDCK or wild type MDCK monolayers. Test compound was added to either the apical or basolateral chambers of the Transwell plate assembly at a concentration of 10 µM in Hanks’ Balanced Salt Solution containing 25 mM HEPES (pH 7.4). Lucifer Yellow was added to the apical buffer in all wells and its permeation monitored to assess integrity of the cell layer. […] Concentrations of compound in the samples were measured by LC-MS/MS. Concentrations of LY in the samples were measured using a fluorescence plate reader. The apparent permeability (Papp) values of test compound were determined for both the apical to basal (A>B) and basal to apical (B>A) permeation and the efflux ratio (B>A: A>B) determined in both the wild type MDCK and MDR1-MDCK cells. Apparent permeability (Papp) values were calculated from the relationship: [drawing 5] […]

[3] = system: diversity panel of 72 binding and 29 enzyme assays; test: Cerep Diversity Profile, overall; details: 10 µM, duplicate
Description: as §1

opioid (non‐selective) = test: Cerep binding, antagonist radioligand; details: 10 μM
Description: as §1

D1 (h) = target: T1, D1 (h) (Homo sapiens, UniProt P21728); test: Cerep binding, antagonist radioligand; details: read-out: % inhibition of control specific binding
T1 construct: purchased Cerep (Diversity Profile)
T1 sequence (P21728 whole entry): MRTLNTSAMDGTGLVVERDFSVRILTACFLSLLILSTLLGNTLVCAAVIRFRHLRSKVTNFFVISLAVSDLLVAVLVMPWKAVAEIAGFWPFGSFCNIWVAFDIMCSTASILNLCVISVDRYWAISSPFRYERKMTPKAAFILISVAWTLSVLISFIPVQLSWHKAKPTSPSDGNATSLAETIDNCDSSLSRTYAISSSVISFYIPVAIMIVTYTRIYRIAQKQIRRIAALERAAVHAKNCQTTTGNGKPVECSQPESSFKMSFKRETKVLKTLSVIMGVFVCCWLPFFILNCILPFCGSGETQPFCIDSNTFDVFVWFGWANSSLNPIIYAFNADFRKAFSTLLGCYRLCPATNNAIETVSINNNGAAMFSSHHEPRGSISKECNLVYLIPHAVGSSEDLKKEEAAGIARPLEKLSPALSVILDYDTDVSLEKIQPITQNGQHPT
Description: as §1

KATP channel = test: Cerep binding, antagonist radioligand; details: 10 μM
Description: as §1

% inhibition of control specific binding (opioid (non‐selective)) [%]	inhibition at 10 µM (D1 (h)) [%]	% inhibition of control specific binding (KATP channel) [%]	SMILES	% inhibition of control specific binding (PCP) [%]	% inhibition of control specific binding (Na+ channel (site 2)) [%]	% inhibition of control specific binding (NMDA) [%]	% inhibition of control specific binding (M (non‐selective)) [%]	histone acetylation in cortical tissue (H3K4, H3K9, H3K14, H4K5, Ac-H3, Ac-H4) [1]	Papp A→B at 1 h, 10 µM [2] [×10⁻⁶ cm/s]	off-target profile in the Cerep Diversity Profile [3]
–	–	–	Nc1ccccc1NC(=O)CCCCCC(=O)Nc1ccccc1 [Compound 4b]	15	7	1	13	failed to enhance histone acetylation	10.8	clean
40	27	5	O=C(CCCCCc1nc2ccccc2[nH]1)Nc1ccccc1 [Compound C1, 6-(1-H-benzo[d]imidazol-2-yl)-N-phenylhexanamide]	–	–	–	–	–	–	–
